Values quoted from earlier work as cited in patent publication US20240052003A1, “COMPOSITIONS COMPRISING PEDF-DERIVED SHORT PEPTIDES (PDSP) AND USES THEREOF” (BRIM Biotechnology, Inc., priority 2019, published 2024).

Test system: eye
Details: ocular application

Structure (SMILES): NC(=O)c1cccnc1 [nicotinamide]
- Eye irritation: may cause eye irritation
